Assay results taken from US8618082B2, “Lupeol anti-tumor agent and uses thereof” (Wisconsin Alumni Research Foundation, priority 2004, dated 2013).

Tests used:
[1] = system: CD-1 mouse skin; type: in vivo
Protocol: FIG. 8. Two stage carcinogenesis tumor data in CD-1 mice: Inhibitory effect of Lupeol on DMBA-initiated and TPA-promoted tumor formation in CD-1 mice: In each group, 20 animals were used. Tumorigenesis was initiated in the animals by a single topical application of 200 nmol DMBA in 0.2 ml vehicle on the dorsal shaved skin, and 1 week later, the tumor growth was promoted with twice-weekly applications of 3.2 nmol TPA in 0.2 ml vehicle. To assess its anti-skin tumor-promoting effect, Lupeol at a dose of 2 mg/animal was applied topically 30 min prior to each TPA application in different groups. Treatment with TPA alone or Lupeol plus TPA was repeated twice weekly up to the termination of the experiments at 28 weeks. Animals in all the groups were watched for any apparent signs of toxicity, such as weight loss or mortality during the entire period of study. Skin tumor formation was recorded weekly, and tumors larger than 1 mm in diameter were included in the cumulative number only if they persisted for 2 weeks or more. The tumor data is represented as the percentage of mice with tumors (a), the number of tumors per mouse (b) and the number of tumors per group (c). The data was analyzed by Wilcoxon rank sum test and χ^2 analysis.
Female CD-1 mice were used in DMBA- and TPA-induced, two-stage skin tumorigenesis protocol as described earlier (Katiyar et al., 1996). The dorsal side of the skin was shaved using electric clippers, and the mice with hair cycles in the resting phase were used for tumor studies. In each group, 20 animals were used. Tumorigenesis was initiated in the animals by a single topical application of 200 nmol DMBA in 0.2 ml vehicle on the dorsal shaved skin, and 1 week later, the tumor growth was promoted with twice-weekly applications of 3.2 nmol TPA in 0.2 ml vehicle. […] Treatment with TPA alone or Lupeol plus TPA was repeated twice weekly up to the termination of the experiments at 28 weeks. Animals in all the groups were watched for any apparent signs of toxicity, such as weight loss or mortality during the entire period of study. Skin tumor formation was recorded weekly, and tumors larger than 1 mm in diameter were included in the cumulative number only if they persisted for 2 weeks or more.
A two-tailed Student's t test was used to assess the statistical significance between the TPA treated and Lupeol+TPA treated groups. A p value<0.05 was considered statistically significant. In tumorigenesis experiments, the statistical significance of difference between TPA and Lupeol+TPA groups was evaluated by the Wilcoxon rank sum test and χ^2 analysis.

[2] = system: epidermal COX-2 protein; test: TPA-induced epidermal COX-2 protein expression (western blot); type: in vivo, mouse
Protocol: FIG. 4. Inhibitory effect of Lupeol on TPA-induced epidermal ODC, iNOS and COX-2 protein expression in CD-1 mice: At different times after treatment, the animals were sacrificed, epidermal protein lysate was prepared, and ODC and COX-2 protein expression were determined. Equal loading of protein was confirmed by stripping the immunoblot and reprobing it for β-actin. The immunoblots shown here are representative of three independent experiments with similar results. The values above each lane indicate relative density of the band normalized to β-actin.
The animals were shaved on the dorsal side of the skin, divided into four groups and treated topically on the shaved area with either 0.4 ml vehicle (acetone), or TPA (3.2 nmol/0.4 ml acetone/animal, v/v), or Lupeol (1 or 2 mg/0.2 ml acetone/animal, w/v) followed 30 min later with TPA (3.2 nmol/0.2 ml acetone/animal). Animals were sacrificed at different times point i.e. 6, 12, 24 and 48 h post TPA treatment. The epidermis was separated from the whole skin and homogenized in 0.1 M Tris-HCl buffer (pH 7.2) using a Polytron tissue homogenizer (Brinkmann Instruments, Westbury, N.Y., USA) at 100,000×g supernatant, and microsomal fractions were prepared as described earlier (Katiyar and Mukhtar, 1997). The sample of 6 h treatment group was used to assess the ODC activity as this time point has previously been shown for optimal induction of the enzyme (Katiyar er al., 1996).
Epidermis from the whole skin was separated as described earlier (Katiyar et al., 1999) and was homogenized in ice-cold lysis buffer [50 mM Tris-HCl, 150 mM NaCl, 1 mM EGTA, 1 mM EDTA, 20 mM NaF, 100 mM Na3VO4, 0.5% NP-40, 1% Triton X-100, 1 mM PMSF (pH 7.4)] with freshly added protease inhibitor cocktail, Protease Inhibitor Cocktail Set III (Calbiochem, La Jolla, Calif., USA). The homogenate was then centrifuged at 14,000×g for 25 minutes at 4° C. and the supernatant (total cell lysate) was collected, aliquoted and stored at −80° C. For the preparation of nuclear lysate, 0.2 g of the epidermis was homogenized in 1 ml of ice-cold phosphate-buffered saline (pH 7.6) and centrifuged at 12,000×g for 5 min at 4° C. […] The protein content in the lysates was measured by DC BioRad assay (BioRad Laboratories, Hercules, Calif.) as per the manufacturer's protocol.
For western blot analysis, 40 μg of the protein was resolved over 8-12% polyacrylamide gels and transferred to a nitrocellulose membrane. […] This was followed by incubation with anti-mouse or anti-rabbit secondary antibody horse-radish peroxidase (Amersham Life Sciences, Inc., USA) for 1 h and then washed several times and detected by chemiluminescence ECL kit, (Amersham Life Sciences, Inc., USA) and autoradiography using XAR-5 film obtained from Eastman Kodak Co. (Rochester, N.Y., USA). […]

[3] = Lupeol 2 mg/animal, 28 weeks, vs non-Lupeol treated group

## C=C(C)[C@@H]1CC[C@]2(C)CC[C@]3(C)[C@H](CC[C@@H]4[C@@]5(C)CC[C@H](O)C(C)(C)[C@@H]5CC[C@]43C)[C@@H]12 [Lupeol, Lup-20(29)-en-3β-ol]
[1]; Lupeol 2 mg/animal topical 30 min prior to each TPA, 28 weeks, non-Lupeol group 100%
  percentage of mice with skin tumors: 53%
[1]; Lupeol 2 mg/animal, 28 weeks, 20 animals, non-Lupeol group 125
  total number of tumors per group: 33 tumors
[1]; [3]
  inhibition of number of tumors per mouse: 74%
  inhibition of total number of tumors: 74%
[1]; Lupeol 2 mg/animal, 28 weeks, non-Lupeol group 6.25
  number of tumors per mouse: 1.65 tumors per mouse
[1]; Lupeol 2 mg/animal, p<0.05, χ2 test
  latency period of tumor formation: significantly increased
[1]; Lupeol treatment for 28 weeks, data not shown
  body weight gain: did not significantly affect
[1]; mouse, in vivo
  signs of toxicity: none of the treated mice exhibited any signs of toxicity
[2]; Lupeol 1 mg/animal
  inhibition in TPA-caused increased epidermal COX-2 protein expression: 40%
[2]; Lupeol 2 mg/animal
  TPA-induced COX-2 protein level: restored the level of TPA-induced COX-2 protein almost to its basal level
[2]; Lupeol alone 2 mg
  epidermal COX-2 protein expression after Lupeol alone: did not produce any change
